Measured values: ChEMBL document CHEMBL1134496, “An optimized protein kinase C activating diacylglycerol combining high binding affinity (Ki) with reduced lipophilicity (log P)” (J Med Chem, 2001)

Assay: Partition coefficient (logP)
Format: physicochemical
Conditions: octanol/water

| logP | SMILES |
| --- | --- |
| 5.79 | CC(C)C(CC(=O)OC[C@H](CO)OC(=O)CC(C(C)C)C(C)C)C(C)C |
| 3.97 | CC(C)CC(=O)OC[C@H](CO)OC(=O)CC(C(C)C)C(C)C |
| 2.07 | CC(C)=CC(=O)OC[C@H](CO)OC(=O)CC(C)C |
| 3.88 | CC(C)=CC(=O)O[C@@H](CO)COC(=O)CC(C(C)C)C(C)C |
| 3.89 | CC(C)CC(=O)O[C@@H](CO)COC(=O)C=C(C(C)C)C(C)C |
| 3.8 | CC(C)=CC(=O)O[C@@H](CO)COC(=O)C=C(C(C)C)C(C)C |
| 1.99 | CC(C)=CC(=O)OC[C@H](CO)OC(=O)C=C(C)C |
| 2.07 | CC(C)=CC(=O)O[C@@H](CO)COC(=O)CC(C)C |
| 7 | CCCCCCCC/C=C/CCCCCCCC(=O)OC[C@H](CO)OC(C)=O |

Further lines, the compound ahead of its results:

| SMILES | logP |
| --- | --- |
| CCCC(=O)O[C@@H]1[C@@H](C)[C@@]2(O)[C@@H](C=C(CO)C[C@]3(O)C(=O)C(C)=C[C@@H]23)[C@@H]2C(C)(C)[C@]12OC(=O)CCC | 3.4 |
| CC(C)CC(=O)OC[C@H](CO)OC(=O)CC(C)C | 2.16 |
| CC(C)CC(=O)O[C@@H](CO)COC(=O)CC(C(C)C)C(C)C | 3.97 |
| CC(C)C(=CC(=O)OC[C@H](CO)OC(=O)CC(C(C)C)C(C)C)C(C)C | 5.71 |
| CC(C)C(=CC(=O)OC[C@H](CO)OC(=O)C=C(C(C)C)C(C)C)C(C)C | 5.62 |
| CC(C)C(=CC(=O)O[C@@H](CO)COC(=O)CC(C(C)C)C(C)C)C(C)C | 5.71 |
| CC(C)CC(=O)OC[C@H](CO)OC(=O)C=C(C(C)C)C(C)C | 3.89 |
| CCCCCCCC(=O)OC[C@H](CO)OC(=O)CCCCCCC | 5.3 |
| CC(C)=CC(=O)OC[C@H](CO)OC(=O)CC(C(C)C)C(C)C | 3.88 |
| CC(C)=CC(=O)OC[C@H](CO)OC(=O)C=C(C(C)C)C(C)C | 3.8 |
| CC(=O)O[C@@]12C[C@@H](C)[C@@]3(O)[C@@H](C=C(CO)C[C@]4(O)C(=O)C(C)=C[C@@H]34)[C@@H]1C2(C)C [PROSTRATIN] | 1.9 |
